In patent US20110079773A1, “Selectively Functionalized Rylene Imides and Diimides” (priority 2009, published 2011):
Values after ≈ are worked out from the molar mass of the structure shown.

Legend:
Format in all cases: physicochemical
Solubility in toluene = test: Solubility in toluene
Procedure: As used herein, a compound can be considered soluble in a solvent when at least 0.1 mg of the compound can be dissolved in 1 mL of the solvent. Examples of common organic solvents include petroleum ethers; acetonitrile; aromatic hydrocarbons such as benzene, toluene, xylene, and mesitylene; ketones such as acetone, and methyl ethyl ketone; ethers such as tetrahydrofuran, dioxane, bis(2-methoxyethyl)ether, diethyl ether, di-isopropyl ether, and t-butyl methyl ether; alcohols such as methanol, ethanol, butanol, and isopropyl alcohol; aliphatic hydrocarbons such as hexanes; esters such as methyl acetate, ethyl acetate, methyl formate, ethyl formate, isopropyl acetate, and butyl acetate; amides such as dimethylformamide and dimethylacetamide; sulfoxides such as dimethylsulfoxide; halogenated aliphatic and aromatic hydrocarbons such as dichloromethane, chloroform, ethylene chloride, chlorobenzene, dichlorobenzene, and trichlorobenzene; and cyclic solvents such as cyclopentanone, cyclohexanone, and 2-methypyrrolidone. In various embodiments, the present compounds can have good solubility in solvents that are aromatic hydrocarbons such as benzene, toluene, xylene, and mesitylene.
Table 2 below compares the solubilities of several compounds according to the present teachings with their unsubstituted counterparts in toluene.

[1] = Electrochemistry (redox potentials)
Procedure: Electrochemical measurements were performed using a CH Instruments Model 622 electrochemical workstation. Measurements for compounds 4, 6, 8, and 10 were performed in dichloromethane containing 0.1 M tetrabutylammonium hexafluorophosphate (TBAPF6) electrolyte. Measurements for 2 were performed in benzonitrile with the same electrolyte. A 1.0 mm diameter platinum disk electrode, platinum wire electrode, and […] reference electrode were employed. The ferrocene/ferrocenium redox couple (Fc/Fc^+, 0.46 V vs. SCE) (see Connelly et al., Chem. Rev., 96: 877-910 (1996)) was used as an internal standard. TBAPF6 was recrystallized twice from ethyl acetate prior to use.
Alkylation (e.g., substitution of the phenethyl groups) ortho to the imide nitrogen atoms appears to render the present compounds somewhat more difficult to reduce, but easier to oxidize (Table 3). The reduction potentials of the disubstituted compounds (2, 4, and 6) are approximately 130 mV more negative than those of their parent compounds. Correspondingly, the oxidation potential of the disubstituted 6 is 40 mV less positive than that of […]. Tetrasubstituted 8 and 10 have reduction potentials that are more negative by ˜200 mV than their unsubstituted analogs. These shifts in redox potentials reasonably arise from the electron-donating nature of the alkylating (e.g., phenethyl) groups. The oxidation and reduction potentials of all alkylated molecules shift in the same direction by nearly the same amount, such that the corresponding HOMO-LUMO energy gap remains the same, as is reflected in their electronic absorption and emission spectra described below.

[2] = Steady-state electronic absorption and fluorescence spectroscopy
Procedure: Steady-state electronic absorption spectra were recorded on a Shimadzu 1601 UV/Vis spectrometer with a 2 mm quartz cuvette. Fluorescence measurements were performed using a PTI Quanta-Master 1 single photon counting spectrofluorimeter in a right angle configuration with a 1 cm quartz cuvette.
The intensity of the S0→>S1 transition increases with the size of the aromatic core, while the energy decreases. The fluorescence spectrum of each chromophore is shown in FIG. 4b and summarized in Table 4 along with that of compounds 1, 3, 5, 7, and 9. A similar trend with the emission maxima moving to longer wavelengths as the size of the aromatic core increases was observed. The electronic absorption and fluorescence properties of all the alkylated chromophores are very similar to those of the parent compounds. No observable trend is apparent for the slight shifts in λmax; however, with the exception of 2, all alkylated compounds have slightly lower extinction coefficients than their parent compounds. The fluorescence emission maxima of the alkylated compounds (Table 4) are similar to those of the parent compounds as reported in the literature. See Hydlovic et al., Phtochem. Photobiol. A., 112: 197-203 (1998); Licchelli et al., Chem. Eur. J., 8: 5161-5169 (2002); Weil et al., Chem. Eur. J., 8: 4742-4750 (2002); and Sadrai et al., J. Phys. Chem., 96: 7988-7996 (1992).

[3] = Femtosecond transient absorption (excited-state decay); details: transient absorption decay time constant, dry toluene
Excerpt: Femtosecond transient absorption measurements were made using a Ti:sapphire laser system as detailed in previously reported work. See Kelley et al., J. Am. Chem. Soc., 129: 3173-3181 (2007). The wavelengths used to excite the samples were 390 nm (1-4), 416 nm (5-8), and 650 nm (9 and 10). The instrument response function for the pump-probe experiments is 160 fs. The transient spectra were obtained using 10 s of averaging at a given delay time. Glass cuvettes with a 2 mm pathlength were used and the samples were dissolved in dry toluene and irradiated with 1.0 μJ pulses at the excitation wavelength. Analysis of the kinetic data was performed at multiple wavelengths using a Levenberg-Marquardt nonlinear least-squares fit to a general sum-of-exponentials function with an added Gaussian to account for the finite instrument response.
The transient absorption spectra of naphthalene monoimide 2, specifically, the S1→>Sn absorption is characterized by a single broad band at 525 nm, which decays monoexponentially with a time constant τD=34 ps. This is similar to the time constant of other NMI compounds and is attributed to rapid intersystem crossing leading to the triplet state of 2. […] The residual 530 nm absorption band decays further with a 175 ps time constant. […]

[4] = shift versus unsubstituted parent

In the case of `CCCCC(CC)CN1C(=O)c2c(CCc3ccccc3)cc3c4cccc5cccc(c6cc(CCc7ccccc7)c(c2c36)C1=O)c54` (stereo not shown) [Compound 6, N-(2′-ethylhexyl)-2,5-bis(phenethyl)perylene-3,4-dicarboximide], the “Solubility relative to unsubstituted counterpart” value (Solubility in toluene) is reported as “three times more soluble”, the solubility (Solubility in toluene; organic solvent or mixture) is reported as 6000 µg/mL (≈ 9.35 mM) and the “E^−1/2” value ([1]; first reduction potential, dichloromethane, 0.1 M TBAPF6, Fc/Fc+ (0.46 V vs. SCE) internal standard) is reported as −1.13^. For the same molecule, the E^+1/2 ([1]; oxidation potential, dichloromethane, 0.1 M TBAPF6, Fc/Fc+ (0.46 V vs. SCE) internal standard) was 1.37 V, the “E^2−1/2” value ([1]; second reduction potential, dichloromethane, 0.1 M TBAPF6) was −1.43^ and the “Oxidation potential less positive than that of parent” value [1, 4] was 40 mV. For the same molecule, the “Reduction potential more negative than that of parent compound” value [1, 4] was “approximately 130 mV”, the λmax ([2]; UV-vis absorption in toluene) was 501 nm and the “E(S1)” value ([2]; determined from the average energy of the absorption and emission maxima) was 2.43 eV. The ε ([2]; extinction coefficient at λmax, toluene) was 27000 M⁻¹ cm⁻¹, the λem ([2]; fluorescence emission maximum, toluene) was 521^ nm and the φF ([2]; fluorescence quantum yield) was 0.98. It also gave a τD [3] of 4700 ± 88 ps.
